Where “and” joins values, the source holds several entries; their conditions need not be identical. Equal values may be shown once.
Tests used:
[1] = tested on: formalin-induced pain behaviors in the rat; assay: Formalin-induced pain test (formalin model), duration of pain behaviors; type: in vivo
Method: Exemplary compounds of the invention were tested in the formalin-induced pain test reported by Dubuisson et al., Pain 1977 December; 4(2):161-74 (incorporated herein by reference in its entirety). Briefly, dilute formalin (50 μL of 3% formalin) was injected into the plantar surface of the hind paw of a rat. […] The individual responsible for counting the pain behaviors in a particular study was blinded to the treatment groups.
The initial phase (Phase I: 0-5 min) is thought to have a significant component that is dependent upon direct activation of afferent fibers by formalin and functional TRPA1 (McNamara et al., 2007).
Investigators studied oral administration of compounds of the invention at the doses presented in Table 3 on pain behaviors in the formalin model in the rat. Compounds were formulated as solutions in water with various solvents and excipients including dimethyl sulfoxide (DMSO), polyethylene glycol (15)-hydroxystearate (Solutol®, Sigma-Aldrich), caprylocaproyl macrogol-8 glyceride (Labrasol®, Sigma-Aldrich), polysorbate-80 (Tween®-80, Sigma-Aldrich), and polyoxyl 35 castor oil (Cremophor® EL, BASF Corp.); or suspensions in methylcellulose as indicated in Table 3. Animals were dosed orally with the vehicle, or compounds of the invention one hour prior to intraplantar formalin. […] A decrease over Vehicle indicates a positive result. P values, when indicated, indicate significance compared Vehicle.

[2] = tested on: CFA-induced cold hypersensitivity of the hind paw; assay: CFA-induced pain test, cold hypersensitivity (cold plate paw withdrawal latency); type: in vivo; settings: cold plate 1° C., solution in 4% DMSO, 5% Tween-80; for Average PWL Post-Treatment / PWL Change: 1-2 hour pre-treatment; for Average PWL Post-CFA: baseline before dosing
Method: Embodiments of the invention may be efficacious in the treatment of inflammatory pain. Compounds of the invention were tested by the CFA-induced pain test method. Compounds were formulated as solutions in water with various solvents and excipients including dimethyl sulfoxide (DMSO), polyethylene glycol (15)-hydroxystearate (Solutol®, Sigma-Aldrich), caprylocaproyl macrogol-8 glyceride (Labrasol®, Sigma-Aldrich), polysorbate-80 (Tween®-80, Sigma-Aldrich), and polyoxyl 35 castor oil (Cremophor® EL, BASF Corp.); or suspensions in methylcellulose as indicated in Table 3 for oral delivery. Briefly, the hind paw was sensitized to cold temperature (allodynic) by administering 0.1 mL of Complete Freund's Adjuvant (CFA) to the right hind paw. Three days later, the time taken for the animal to lift its CFA-injected paw was recorded compared to its un-injected normal left hind paw. […] To avoid tissue damage the maximum cut-off time was 5 minutes. Animals that were allodynic (average PWL to the first three pain behaviors <150 seconds for the CFA-injected hind paw: ˜≥50% difference between the normal and CFA-injected paw) were included in the study and subsequently randomized across treatment groups. The following day, the animals were dosed orally under blinded conditions. Following the 1-2 hour pre-treatment time, the post-dose PWL readings were again taken. The efficacy of the drug treatment was assessed by comparing the PWL in the drug treatment animals to those animals that receive the vehicle. P values, when indicated, indicate significance compared Vehicle.

human TRPA1 = human TRPA1 (Homo sapiens (Human), UniProt O75762); assay: In vitro inhibition of human TRPA1, whole cell patch configuration; type: cell-based; settings: current activation 10 μM AITC, tested concentrations 320 pM to 3.2 μM, read-out: hTRPA1 IC50
Sequence of human TRPA1 (O75762 whole entry, the tested form may be a part): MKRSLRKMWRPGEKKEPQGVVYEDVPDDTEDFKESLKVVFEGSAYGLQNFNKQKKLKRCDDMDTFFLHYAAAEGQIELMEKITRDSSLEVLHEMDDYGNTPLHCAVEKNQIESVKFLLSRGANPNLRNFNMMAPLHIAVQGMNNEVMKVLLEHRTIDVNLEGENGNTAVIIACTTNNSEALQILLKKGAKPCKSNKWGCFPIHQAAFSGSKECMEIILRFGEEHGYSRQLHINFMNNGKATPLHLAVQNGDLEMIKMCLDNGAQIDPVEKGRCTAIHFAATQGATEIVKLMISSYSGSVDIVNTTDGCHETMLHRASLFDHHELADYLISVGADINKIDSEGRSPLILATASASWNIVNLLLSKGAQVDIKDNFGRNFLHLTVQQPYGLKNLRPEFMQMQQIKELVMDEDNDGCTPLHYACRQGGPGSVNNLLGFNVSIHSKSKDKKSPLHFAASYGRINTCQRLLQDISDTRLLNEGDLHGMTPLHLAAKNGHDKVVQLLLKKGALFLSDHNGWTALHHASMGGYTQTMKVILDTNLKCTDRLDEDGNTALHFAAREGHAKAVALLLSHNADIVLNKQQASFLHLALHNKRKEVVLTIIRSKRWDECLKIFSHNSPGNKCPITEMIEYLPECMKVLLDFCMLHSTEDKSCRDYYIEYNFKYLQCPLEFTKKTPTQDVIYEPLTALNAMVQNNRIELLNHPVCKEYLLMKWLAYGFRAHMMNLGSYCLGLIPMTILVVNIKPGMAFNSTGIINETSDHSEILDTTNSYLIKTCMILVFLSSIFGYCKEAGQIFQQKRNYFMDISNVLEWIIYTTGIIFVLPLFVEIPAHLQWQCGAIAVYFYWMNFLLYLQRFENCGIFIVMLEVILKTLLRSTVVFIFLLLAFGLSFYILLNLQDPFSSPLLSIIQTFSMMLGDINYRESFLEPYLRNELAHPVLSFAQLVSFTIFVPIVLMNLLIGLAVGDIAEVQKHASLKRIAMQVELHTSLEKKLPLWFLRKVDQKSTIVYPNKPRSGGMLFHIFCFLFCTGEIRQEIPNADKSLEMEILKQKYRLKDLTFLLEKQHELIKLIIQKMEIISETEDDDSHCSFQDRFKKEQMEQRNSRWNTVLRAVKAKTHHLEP
Summary of the method: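 Compound antagonism measured from voltage ramps (±100 or ±80 mV, 400 ms, every 4 s from −40 mV), analysed at −80 and 80 mV, or at constant −60 mV. HEPES-buffered NaCl bath, pH 7.4, EGTA or 2 mM Ca2+; temperature set by perfusion, within ±2° C; no junction-potential correction.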

[3] = 30 mg/kg PO one hour prior to formalin, solution in 8% DMSO and 92% Labrasol
[4] = 1 mg/kg PO, 25% Cremophor EL, and 66% water
[5] = 3 mg/kg PO, 25% Cremophor EL, and 66% water
[6] = 10 mg/kg PO, 25% Cremophor EL, and 66% water
[7] = 1 mg/kg PO one hour prior to formalin, solution in 4% DMSO, 5% Tween-80, 20% Cremophor EL, 71% water
[8] = 3 mg/kg PO one hour prior to formalin, solution in 4% DMSO, 5% Tween-80, 20% Cremophor EL, 71% water
[9] = 10 mg/kg PO one hour prior to formalin, solution in 4% DMSO, 5% Tween-80, 20% Cremophor EL, 71% water
[10] = 0.3 mg/kg PO, 20% Cremophor EL, and 71% water
[11] = 1 mg/kg PO, 20% Cremophor EL, and 71% water
[12] = 3 mg/kg PO, 20% Cremophor EL, and 71% water
[13] = group 1 mg/kg PO, 20% Cremophor EL, and 71% water
[14] = group 3 mg/kg PO, 20% Cremophor EL, and 71% water
[15] = 10 mg/kg PO, 20% Cremophor EL, and 71% water
[16] = 1 mpk PO one hour prior to formalin, solution in 4% DMSO, 10% Solutol, 86% water
[17] = 3 mpk PO one hour prior to formalin, solution in 4% DMSO, 10% Solutol, 86% water
[18] = 10 mpk PO one hour prior to formalin, solution in 4% DMSO, 10% Solutol, 86% water

Row | SMILES | Duration (0-2 Minutes) Average [1, 7] | Duration (0-5 Minutes) Average [1, 7] | Duration (0-2 Minutes) Average [1, 8] | Duration (0-5 Minutes) Average [1, 8] | Duration (0-2 Minutes) Average [1, 9] | Duration (0-5 Minutes) Average [1, 9] | Average PWL Post-Treatment [2, 11] | PWL Change [2, 11] | Average PWL Post-Treatment [2, 12] | PWL Change [2, 12] | Average PWL Post-CFA [2, 13] | Average PWL Post-CFA [2, 14] | IC50 (human TRPA1) | also measured
1 | CCC(=O)Cn1c(=O)c2c(ncn2[C@@H](C)C(=O)Nc2csc(-c3cnc(N4CC5CC5C4)nc3)n2)n(C)c1=O (some centres unmarked) [Compound 14] |  |  |  |  |  |  |  |  |  |  |  |  |  | Duration (0-2 Minutes) Average [1, 3]: 34.3 s and 39.6 s; Duration (0-5 Minutes) Average [1, 3]: 123.4 s and 160.6 s; Average PWL Post-Treatment [2, 4]: 194.8; PWL Change [2, 4]: 104.2 s; Average PWL Post-Treatment [2, 5]: 180.0; PWL Change [2, 5]: 87.6 s; Average PWL Post-Treatment [2, 6]: 237.4; PWL Change [2, 6]: 146.3 s; Average PWL Post-CFA ([2]; group 1 mg/kg PO, 25% Cremophor EL, and 66% water): 90.3; Average PWL Post-CFA ([2]; group 3 mg/kg PO, 25% Cremophor EL, and 66% water): 92.3; Average PWL Post-CFA ([2]; group 10 mg/kg PO, 25% Cremophor EL, and 66% water): 90.9
2 | COCC(=O)Cn1c(=O)c2c(ncn2[C@@H](C)C(=O)Nc2csc(-c3cnc(N4CC5CC5C4)nc3)n2)n(C)c1=O (stereo partly drawn) [Compound 105, (2S)—N-(2-(2-(3-azabicyclo[3.1.0]hexan-3-yl)pyrimidin-5-yl)thiazol-4-yl)-2-(1-(3-methoxy-2-oxopropyl)-3-methyl-2,6-dioxo-2,3-dihydro-1H-purin-7(6H)-yl)propanamide] | 97.9 s | 162.6 s | 86.0 s | 154.0 s | 70.1 s | 137.3 s | 215.2 | 112.8 s | 226.3 | 123.6 s | 102.3 | 102.7 |  | Average PWL Post-Treatment [2, 10]: 137.3; PWL Change [2, 10]: 34.9 s; Average PWL Post-CFA ([2]; group 0.3 mg/kg PO, 20% Cremophor EL, and 71% water): 102.4
3 | CCC(=O)Cn1c(=O)c2c(ncn2[C@@H](C)C(=O)Nc2csc(-c3cnc(N4CCC[C@H]4C(F)(F)F)nc3)n2)n(C)c1=O [Compound 18, (S)-2-(3-methyl-2,6-dioxo-1-(2-oxobutyl)-2,3-dihydro-1H-purin-7(6H)-yl)-N-(2-(2-((S)-2-(trifluoromethyl)pyrrolidin-1-yl)pyrimidin-5-yl)thiazol-4-yl)propanamide] | 78.0 s | 183.3 s | 58.0 s | 157.1 s | 35.3 s | 181.6 s | 246.8 | 149.7 s | 233.5 | 136.4 s | 97.1 | 97.0 |  | Average PWL Post-Treatment [2, 15]: 256.1; PWL Change [2, 15]: 159.1 s; Average PWL Post-CFA ([2]; group 10 mg/kg PO, 20% Cremophor EL, and 71% water): 97.0
4 | Cc1cc(Cn2c(=O)c3c(ncn3[C@@H](C)C(=O)Nc3cccc(-c4ccc(C(F)(F)F)nc4)n3)n(C)c2=O)no1 [Compound 7, (S)-2-(3-methyl-1-((5-methylisoxazol-3-yl)methyl)-2,6-dioxo-2,3-dihydro-1H-purin-7(6H)-yl)-N-(6′-(trifluoromethyl)-[2,3′-bipyridin]-6-yl)propanamide] |  |  |  |  |  |  |  |  |  |  |  |  | 5 nM | Duration (0-2 Minutes) Average [1, 16]: 82.38 s; Duration (0-5 Minutes) Average [1, 16]: 200.38 s; Duration (0-2 Minutes) Average [1, 17]: 78.25 s; Duration (0-5 Minutes) Average [1, 17]: 173.75 s; Duration (0-2 Minutes) Average [1, 18]: 67.00 s; Duration (0-5 Minutes) Average [1, 18]: 170.50 s
5 | Cc1nc(Cn2c(=O)c3c(ncn3CC(=O)Nc3csc(-c4cnc(C(F)(F)F)c(C)c4)n3)n(C)c2=O)no1 [Compound 253, 2-(3-methyl-1-((5-methyl-1,2,4-oxadiazol-3-yl)methyl)-2,6-dioxo-2,3-dihydro-1H-purin-7(6H)-yl)-N-(2-(5-methyl-6-(trifluoromethyl)pyridin-3-yl)thiazol-4-yl)acetamide] | 79.3 s | 126.4 s | 78.8 s | 119.6 s | 76.4 s | 116.0 s |  |  |  |  |  |  | 20 nM | 
6 | CCC(=O)Cn1c(=O)c2c(ncn2[C@@H](C)C(=O)Nc2cccc(-c3cnc(C)c(C(F)(F)F)c3)n2)n(C)c1=O [Compound 135, (S)-2-(3-methyl-2,6-dioxo-1-(2-oxobutyl)-2,3-dihydro-1H-purin-7(6H)-yl)-N-(6′-methyl-5′-(trifluoromethyl)-[2,3′-bipyridin]-6-yl)propanamide] | 91.1 s | 153.3 s | 80.3 s | 120.3 s | 74.3 s | 139.0 s |  |  |  |  |  |  | 4 nM | 

Reference: patent publication US10221177B2 (HYDRA BIOSCIENCES, INC., priority 2014, dated 2019)
